The record followed here is ChEMBL document CHEMBL4177690, “(E)-3-(3,4,5-Trimethoxyphenyl)-1-(pyridin-4-yl)prop-2-en-1-one, a heterocyclic chalcone is a potent and selective CYP1A1 inhibitor and cancer chemopreventive agent” (Bioorg Med Chem Lett, 2017).

The structures appear in SMILES notation. Where only a bound is given, the exact number is not on record here.

In one experiment the target is Cytochrome P450 2C19 (Homo sapiens, UniProt P33261). The experiment in a line: Inhibition of recombinant human CYP2C19 expressed in HEK293 cells using 3-cyano-7-ethoxycoumarin as substrate pretreated for 30 mins followed by substrate addition measured for 60 mins by fluorescence assay. Format: ADME.
A further experiment has as its target T1, Cytochrome P450 2A6 (Homo sapiens, UniProt P11509).
T1 sequence (P11509 whole entry): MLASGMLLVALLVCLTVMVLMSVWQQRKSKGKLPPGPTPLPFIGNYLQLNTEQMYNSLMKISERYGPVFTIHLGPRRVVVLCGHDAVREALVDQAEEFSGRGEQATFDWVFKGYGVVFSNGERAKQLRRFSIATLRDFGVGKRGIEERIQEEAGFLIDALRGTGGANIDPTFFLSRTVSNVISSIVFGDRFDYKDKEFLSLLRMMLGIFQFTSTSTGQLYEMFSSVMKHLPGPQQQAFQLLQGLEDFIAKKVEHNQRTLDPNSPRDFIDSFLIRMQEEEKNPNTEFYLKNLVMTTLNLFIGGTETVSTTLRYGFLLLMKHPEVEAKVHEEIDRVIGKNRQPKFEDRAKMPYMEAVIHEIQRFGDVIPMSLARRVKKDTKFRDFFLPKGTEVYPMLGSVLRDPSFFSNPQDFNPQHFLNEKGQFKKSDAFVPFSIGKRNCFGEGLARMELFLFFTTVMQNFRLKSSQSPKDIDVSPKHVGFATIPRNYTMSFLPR
In words: Inhibition of human CYP2A6 expressed in yeast cells. Format: ADME, cell-based.

Experiment [1] is filed under the species Homo sapiens. In words: Selectivity ratio of IC50 for recombinant human CYP1B1 expressed in HEK293 cells to IC50 for recombinant human CYP1A1 expressed in HEK293 cells. It counts as cell-based.
A further experiment has as its target Cytochrome P450 2D6 (Homo sapiens, UniProt P10635). In words: Inhibition of human CYP2D6 expressed in yeast microsomal membranes using 7-ethoxy-methyloxy-3-cyanocoumarin as substrate measured after 10 mins by fluorescence assay. It counts as ADME, cell membranes, Microsomal Membrane.
The next experiment concerns the target T2, Cytochrome P450 2C8 (Homo sapiens, UniProt P10632).
T2 sequence (P10632 whole entry): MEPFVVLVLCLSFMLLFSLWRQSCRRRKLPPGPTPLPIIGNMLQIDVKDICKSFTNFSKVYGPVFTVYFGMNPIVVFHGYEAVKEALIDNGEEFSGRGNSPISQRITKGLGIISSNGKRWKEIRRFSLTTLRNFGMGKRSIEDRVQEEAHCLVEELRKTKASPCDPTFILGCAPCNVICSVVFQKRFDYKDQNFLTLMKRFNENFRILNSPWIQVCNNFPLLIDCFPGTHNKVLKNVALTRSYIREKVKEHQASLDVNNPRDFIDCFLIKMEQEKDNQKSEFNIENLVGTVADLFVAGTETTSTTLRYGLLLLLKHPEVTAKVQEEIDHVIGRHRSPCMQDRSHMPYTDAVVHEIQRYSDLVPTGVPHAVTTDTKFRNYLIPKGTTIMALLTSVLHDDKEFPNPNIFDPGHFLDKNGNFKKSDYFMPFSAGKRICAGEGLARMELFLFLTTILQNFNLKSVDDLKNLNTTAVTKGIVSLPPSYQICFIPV
In words: Inhibition of human CYP2C8 expressed in yeast cells. It counts as ADME, cell-based.

The next experiment addresses T3, Cytochrome P450 1B1 (Homo sapiens, UniProt Q16678).
T3 sequence (Q16678 whole entry): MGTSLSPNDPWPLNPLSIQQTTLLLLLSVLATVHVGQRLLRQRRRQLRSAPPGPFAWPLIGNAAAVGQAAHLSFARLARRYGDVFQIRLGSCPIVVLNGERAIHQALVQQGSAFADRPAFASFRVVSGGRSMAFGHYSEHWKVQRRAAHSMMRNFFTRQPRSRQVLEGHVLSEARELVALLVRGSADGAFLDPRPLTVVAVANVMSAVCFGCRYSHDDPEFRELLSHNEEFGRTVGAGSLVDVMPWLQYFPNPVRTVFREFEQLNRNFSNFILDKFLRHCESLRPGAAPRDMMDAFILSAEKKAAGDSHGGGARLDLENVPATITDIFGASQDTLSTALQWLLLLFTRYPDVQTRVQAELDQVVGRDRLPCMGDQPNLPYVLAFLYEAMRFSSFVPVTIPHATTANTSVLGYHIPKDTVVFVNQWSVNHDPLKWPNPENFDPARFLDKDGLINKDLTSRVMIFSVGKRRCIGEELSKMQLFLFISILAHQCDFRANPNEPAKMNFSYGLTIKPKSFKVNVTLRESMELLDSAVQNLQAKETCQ
The experiment in a line: Inhibition of recombinant human CYP1B1 expressed in HEK293 cells using 7-ethoxyresorufin as substrate pretreated for 30 mins followed by substrate addition measured for 60 mins by fluorescence assay. It counts as cell-based.

The species entered for experiment [2] is Homo sapiens. The experiment in a line: Selectivity ratio of IC50 for recombinant human CYP1A2 expressed in HEK293 cells to IC50 for recombinant human CYP1A1 expressed in HEK293 cells. It counts as cell-based.
The target in a further experiment is Cytochrome P450 3A4 (Homo sapiens, UniProt P08684). The experiment in a line: Inhibition of human CYP3A4 expressed in yeast microsomal membranes using dibenzylfluorescein as substrate measured after 10 mins by fluorescence assay. It counts as ADME, cell membranes, Microsomal Membrane.
For another experiment, the target named is T4, Cytochrome P450 2J2 (Homo sapiens, UniProt P51589).
T4 sequence (P51589 whole entry): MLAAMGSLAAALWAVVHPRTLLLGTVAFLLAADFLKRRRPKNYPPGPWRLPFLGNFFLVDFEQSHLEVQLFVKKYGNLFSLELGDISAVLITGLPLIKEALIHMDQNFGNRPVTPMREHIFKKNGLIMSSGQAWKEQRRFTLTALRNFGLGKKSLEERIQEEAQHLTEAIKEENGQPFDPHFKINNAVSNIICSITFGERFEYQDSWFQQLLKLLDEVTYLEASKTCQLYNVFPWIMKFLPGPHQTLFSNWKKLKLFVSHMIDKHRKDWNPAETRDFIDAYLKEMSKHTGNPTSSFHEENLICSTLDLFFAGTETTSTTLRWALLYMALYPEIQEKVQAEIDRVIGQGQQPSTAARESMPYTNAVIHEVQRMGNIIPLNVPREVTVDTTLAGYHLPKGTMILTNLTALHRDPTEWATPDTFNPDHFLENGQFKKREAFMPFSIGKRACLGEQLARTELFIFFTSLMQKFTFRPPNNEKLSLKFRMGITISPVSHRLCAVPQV
The experiment in a line: Inhibition of human CYP2J2 expressed in yeast cells. It counts as ADME, cell-based.

Cytochrome P450 2C19, sequence (P33261 whole entry): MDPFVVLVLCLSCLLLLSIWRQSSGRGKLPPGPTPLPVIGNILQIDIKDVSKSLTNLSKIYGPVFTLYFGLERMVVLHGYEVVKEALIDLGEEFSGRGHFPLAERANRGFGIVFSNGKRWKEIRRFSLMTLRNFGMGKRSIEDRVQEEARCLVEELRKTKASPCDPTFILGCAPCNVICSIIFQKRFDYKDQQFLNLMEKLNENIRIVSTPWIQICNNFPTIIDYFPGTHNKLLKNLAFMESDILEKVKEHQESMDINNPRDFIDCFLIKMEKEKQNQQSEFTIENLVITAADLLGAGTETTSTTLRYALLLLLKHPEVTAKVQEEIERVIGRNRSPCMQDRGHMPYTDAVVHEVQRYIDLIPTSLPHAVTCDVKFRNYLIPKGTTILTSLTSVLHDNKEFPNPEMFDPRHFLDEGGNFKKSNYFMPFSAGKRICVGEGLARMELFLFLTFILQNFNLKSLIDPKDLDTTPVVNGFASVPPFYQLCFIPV
Cytochrome P450 2D6, sequence (P10635 whole entry): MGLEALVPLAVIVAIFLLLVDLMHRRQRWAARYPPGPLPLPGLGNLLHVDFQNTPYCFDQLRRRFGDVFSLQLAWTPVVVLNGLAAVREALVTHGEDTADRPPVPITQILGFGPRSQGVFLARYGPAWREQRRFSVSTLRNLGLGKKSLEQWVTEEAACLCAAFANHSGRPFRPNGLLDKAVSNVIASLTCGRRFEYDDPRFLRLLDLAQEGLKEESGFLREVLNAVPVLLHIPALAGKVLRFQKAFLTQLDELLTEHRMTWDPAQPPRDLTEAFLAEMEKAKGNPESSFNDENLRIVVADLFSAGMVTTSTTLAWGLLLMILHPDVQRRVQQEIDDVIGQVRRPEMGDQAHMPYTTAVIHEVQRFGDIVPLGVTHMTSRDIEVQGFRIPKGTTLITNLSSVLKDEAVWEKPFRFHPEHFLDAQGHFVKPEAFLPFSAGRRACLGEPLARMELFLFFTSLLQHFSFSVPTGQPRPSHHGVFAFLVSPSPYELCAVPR
Cytochrome P450 3A4, sequence (P08684 whole entry): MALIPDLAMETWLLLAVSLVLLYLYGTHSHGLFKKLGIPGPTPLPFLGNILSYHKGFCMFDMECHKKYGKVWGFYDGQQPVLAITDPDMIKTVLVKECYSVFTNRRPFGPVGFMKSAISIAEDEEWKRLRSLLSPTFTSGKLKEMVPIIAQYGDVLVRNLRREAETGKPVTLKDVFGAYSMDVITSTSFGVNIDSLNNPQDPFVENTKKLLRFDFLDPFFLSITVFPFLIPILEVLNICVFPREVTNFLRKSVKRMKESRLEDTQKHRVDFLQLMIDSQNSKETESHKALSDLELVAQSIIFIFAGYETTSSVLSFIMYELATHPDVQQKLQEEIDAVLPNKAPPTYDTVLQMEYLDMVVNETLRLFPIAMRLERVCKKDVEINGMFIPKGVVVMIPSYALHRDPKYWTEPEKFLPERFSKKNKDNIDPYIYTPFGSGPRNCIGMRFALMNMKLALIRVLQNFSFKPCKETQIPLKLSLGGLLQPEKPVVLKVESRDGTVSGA

The IC50 is the midpoint of a concentration-inhibition curve. `COc1cc(/C=C/C(=O)c2ccncc2)cc(OC)c1OC`: the 50% inhibitory concentration (IC50) at Cytochrome P450 2C19 was > 10 µM; on Cytochrome P450 2A6, > 10 µM; on Cytochrome P450 2D6 it was 5 µM; against Cytochrome P450 2C8, 8.92 µM; on Cytochrome P450 1B1, 8.18 µM; against Cytochrome P450 3A4 it was > 20 µM. In addition, the IC50 against Cytochrome P450 2J2 was > 20 µM. In addition, the Ratio IC50 in the experiment filed under Homo sapiens [1] and in the experiment filed under Homo sapiens [2] was < 10 each time.
